The values below come from ChEMBL document CHEMBL4219265, “Piperlongumine derivative, CG-06, inhibits STAT3 activity by direct binding to STAT3 and regulating the reactive oxygen species in DU145 prostate carcinoma cells” (Bioorg Med Chem Lett, 2018).

Each structure is given as a SMILES string.

In data set [1] the test system is LNCaP. The experiment in a line: Growth inhibition of human LNCAP cells after 24 to 48 hrs by WST-1 assay. The data set is classed as functional. In general terms: Formazan colour is commonly taken as a measure of viable cells.
Data set [2] deals with T1, Signal transducer and activator of transcription 3 (Homo sapiens, UniProt P40763). The experiment in a line: Inhibition of STAT3 phosphorylation at Tyr705 residues in human DU145 cells assessed as ratio of phosphorylated STAT3 protein level to GAPDH protein level at 10 uM after 24 hrs by Western blot analysis (reference value: 1). The data set is classed as cell-based.
T1 sequence (P40763 whole entry): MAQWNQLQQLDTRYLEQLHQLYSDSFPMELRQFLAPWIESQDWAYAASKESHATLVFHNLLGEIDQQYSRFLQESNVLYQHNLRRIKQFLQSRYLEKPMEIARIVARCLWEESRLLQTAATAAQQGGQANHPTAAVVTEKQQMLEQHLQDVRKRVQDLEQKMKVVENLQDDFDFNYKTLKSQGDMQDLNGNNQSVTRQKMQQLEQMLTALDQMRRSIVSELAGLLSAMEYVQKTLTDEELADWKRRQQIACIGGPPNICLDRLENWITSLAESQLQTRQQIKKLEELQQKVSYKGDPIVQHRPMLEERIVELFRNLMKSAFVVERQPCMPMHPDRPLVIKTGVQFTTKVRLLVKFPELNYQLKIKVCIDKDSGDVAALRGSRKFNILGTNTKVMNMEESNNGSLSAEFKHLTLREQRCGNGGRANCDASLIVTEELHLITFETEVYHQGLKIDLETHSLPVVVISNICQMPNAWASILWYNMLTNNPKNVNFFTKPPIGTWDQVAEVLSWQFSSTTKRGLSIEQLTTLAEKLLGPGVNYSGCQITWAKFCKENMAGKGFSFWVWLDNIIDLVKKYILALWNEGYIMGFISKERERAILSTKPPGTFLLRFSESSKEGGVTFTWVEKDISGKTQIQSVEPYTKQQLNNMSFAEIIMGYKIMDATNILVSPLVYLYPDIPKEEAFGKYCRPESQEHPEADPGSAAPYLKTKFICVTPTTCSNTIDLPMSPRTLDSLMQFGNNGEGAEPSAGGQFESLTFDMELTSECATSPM

Data set [3] concerns PC-3. The experiment in a line: Growth inhibition of human PC3 cells after 48 hrs by WST-1 assay. The note with it: PC-3, 48 h. Type of data set: functional.
Data set [4] has as its system PC-3. In words: Growth inhibition of human PC3 cells after 24 to 48 hrs by WST-1 assay. The data set is classed as functional.
Data set [5] deals with T1, Signal transducer and activator of transcription 3. The experiment in a line: Inhibition of STAT3 phosphorylation at Tyr705 residues in human DU145 cells assessed as ratio of phosphorylated STAT3 protein level to GAPDH protein level at 1 uM after 24 hrs by Western blot analysis (reference value: 1). Type of data set: cell-based. In general terms: Immunoblotting shows a protein as a band on a membrane.

For data set [6], the system named is DU-145. In words: Effect on total STAT3 protein level in human DU145 cells assessed as ratio of STAT3 protein level to GAPDH protein level at 7 uM after 24 hrs by Western blot analysis (reference value: 1). The data set is classed as ADME, cell-based. The note with it: du-145, 24 h.
Data set [7] relates to DU-145. In words: Growth inhibition of human DU145 cells after 48 hrs by WST-1 assay. The note with it: DU-145, 48 h. Type of data set: functional.
The test system of data set [8] is DU-145. In words: Effect on total STAT3 protein level in human DU145 cells assessed as ratio of STAT3 protein level to GAPDH protein level at 5 uM after 24 hrs by Western blot analysis (reference value: 1). The note with it: du-145, 24 h. The data set is classed as ADME, cell-based.
Data set [9] concerns DU-145. The experiment in a line: Effect on total STAT3 protein level in human DU145 cells assessed as ratio of STAT3 protein level to GAPDH protein level at 3 uM after 24 hrs by Western blot analysis (reference value: 1). The data set is classed as ADME, cell-based. The note with it: du-145, 24 h.
The target of data set [10] is T1, Signal transducer and activator of transcription 3. The experiment in a line: Inhibition of STAT3 phosphorylation at Tyr705 residues in human DU145 cells after 24 hrs by Western blot analysis. The data set is classed as cell-based.
Data set [11] has as its system DU-145. The experiment in a line: Effect on total STAT3 protein level in human DU145 cells assessed as ratio of STAT3 protein level to GAPDH protein level at 1 uM after 24 hrs by Western blot analysis (reference value: 1). Type of data set: ADME, cell-based. The note with it: du-145, 24 h.
Data set [12] deals with T1, Signal transducer and activator of transcription 3. The experiment in a line: Inhibition of STAT3 phosphorylation at Tyr705 residues in human DU145 cells assessed as ratio of phosphorylated STAT3 protein level to GAPDH protein level at 7 uM after 24 hrs by Western blot analysis (reference value: 1). Type of data set: cell-based.
The target is the same in data set [13]. In words: Inhibition of STAT3 phosphorylation at Tyr705 residues in human DU145 cells assessed as ratio of phosphorylated STAT3 protein level to GAPDH protein level at 5 uM after 24 hrs by Western blot analysis (reference value: 1). The data set is classed as cell-based.
Data set [14] deals with DU-145. In words: Effect on total STAT3 protein level in human DU145 cells assessed as ratio of STAT3 protein level to GAPDH protein level at 10 uM after 24 hrs by Western blot analysis (reference value: 1). The data set is classed as ADME, cell-based. The note with it: du-145, 24 h.
For data set [15], the target named is T1, Signal transducer and activator of transcription 3. The experiment in a line: Inhibition of STAT3 phosphorylation at Tyr705 residues in human DU145 cells assessed as ratio of phosphorylated STAT3 protein level to GAPDH protein level at 3 uM after 24 hrs by Western blot analysis (reference value: 1). The data set is classed as cell-based.
The target is the same in data set [16]. In words: Inhibition of STAT3 phosphorylation at Tyr705 residues in human DU145 cells by Western blot analysis. Type of data set: cell-based.
Data set [17] concerns LNCaP. In words: Growth inhibition of human LNCAP cells after 48 hrs by WST-1 assay. Type of data set: functional.
The subject of data set [18] is DU-145. In words: Effect on total STAT3 protein level in human DU145 cells assessed as ratio of ERK1/2 protein level to GAPDH protein level at 2 mM after 1 hr by Western blot analysis (reference value: 1). Type of data set: ADME, cell-based. The note with it: du-145, 1 h, 2000 µM.
In data set [19] the target is T1, Signal transducer and activator of transcription 3. The experiment in a line: Inhibition of STAT3 phosphorylation in human DU145 cells assessed as ratio of phosphorylated STAT3 protein level to GAPDH protein level at […] after 1 hr by Western blot analysis (reference value: 1). The data set is classed as cell-based.

In the case of `COc1cc(/C=C/C(=O)N2CCC=CC2=O)cc(OC)c1OC` [PIPLARTINE], the GI50 was greater than 10 µM in the data set with LNCaP [1]; greater than 10 µM in the data set on PC-3 [3]; greater than 10 µM in the data set on PC-3 [4]; 7.1 µM with DU-145 [7]; 9.2 µM in the data set with LNCaP [17]. Also, the Ratio in data set [2] is 0.3; in data set [5] it was 0.8; in the data set with DU-145 [6], 1; in the data set on DU-145 [8], 1; in the data set on DU-145 [9], 1.1; with DU-145 [11], 1. Moreover, the Ratio was found to be 0.5 in [12], 0.7 in data set [13], 0.9 with DU-145 [14] and 0.7 in [15]. The compound also showed an IC50 in [10] of 7 µM. For the same compound, the inhibition entry in data set [16] was “Dose-dependent effect”.

With `CC(=O)N[C@@H](CS)C(=O)O` [ACETYLCYSTEINE], the Ratio amounted to 0.8 with DU-145 [18] and 1 in [19].

For `C#CCN(C(=O)/C=C/c1cc(OC)c(OC)c(OC)c1)C(=O)C(=C)C`, the GI50 in the data set with PC-3 [3] is 7.3 µM; in the data set on DU-145 [7] it was 2.3 µM; in the data set with LNCaP [17], greater than 10 µM.

For the compound `C=C(C)C(=O)NC(=O)/C=C/c1cc(OC)c(OC)c(OC)c1`, the values for the 50% growth inhibitory concentration (GI50) with PC-3 [3], in the data set on DU-145 [7] and in the data set on LNCaP [17] were 8.2 µM, 8.6 µM and 10 µM, respectively.

On to `C=C(C)C(=O)N(Cc1cccc(Br)c1)C(=O)/C=C/c1cc(OC)c(OC)c(OC)c1`, for which the results for the concentration for 50% growth inhibition (GI50) with PC-3 [3], in the data set with DU-145 [7] and with LNCaP [17] were greater than 10 µM, 5.7 µM and 10 µM, respectively.

Regarding `C=C(C)C(=O)N(Cc1ccccc1C)C(=O)/C=C/c1cc(OC)c(OC)c(OC)c1`, the concentration for 50% growth inhibition (GI50) in the data set on PC-3 [3] was greater than 10 µM; with DU-145 [7] it was 4.2 µM; in the data set with LNCaP [17] it was 10 µM.

As to `C=C(C)C(=O)N(C)C(=O)/C=C/c1cc(OC)c(OC)c(OC)c1`, the values for the GI50 with PC-3 [3], in the data set with DU-145 [7] and in the data set with LNCaP [17] were greater than 10 µM, 5.6 µM and greater than 10 µM, respectively.

A word on the GI50: it is the concentration that inhibits growth by half. By IC50 is commonly meant the point on the concentration scale where inhibition reaches its midpoint. Low readings indicate greater potency, high ones weaker potency.
